Patent US20230404989A1, “GRK2 INHIBITION BY PAROXETINE AMELIORATES OSTEOARTHRITIS” (THE PENN STATE RESEARCH FOUNDATION, priority 2020, published 2023)
“Also recorded” adds a separate entry of the source.

What was measured:
DMM mice = test: DMM drug treatment study: OARSI scoring and histomorphometry of knee cartilage; type: in vivo, mouse; details: for cartilage degeneration (Safranin-O and Fast Green histology) / chondro-protective and matrix-regenerative effects (overall) / total number of chondrocytes / uncalcified cartilage area: daily ip week 8 to 12; for OARSI score / number of matrix producing chondrocytes: daily ip week 8 to 12, versus vehicle
Method: Drug treatment studies: In twelve-week old male wild type C57BL/6 mice that received DMM surgeries, vehicle (PBS), paroxetine (5 mg/kg/day), fluoxetine (5 mg/kg/day), gallein (10 mg/kg/day) or indomethacin (2.5 mg/kg/day) were administered daily by ip injection. Drug treatment was initiated 8 weeks following DMM to determine the role of GRK2 signaling in the progression of OA.
Twelve-week-old male mice were administered DMM surgery to the right knee and sham surgery to the left knee as described (S. S. Glasson, Osteoarthritis. Cartilage. 15, 1061-1069 (2007)). Briefly, mice were anesthetized via intraperitoneal injection of ketamine (60 mg/kg) and xylazine (4 mg/kg), and a 5-mm-long incision was made on the medial side of the knee. Under a dissecting microscope, an incision was made along the medial side of the patellar tendon, opening the joint space. Using a #11 scalpel, the medial meniscotibial ligament (MMTL) was transected, enabling the medial meniscus to move freely. A similar skin incision was made in sham knees, but the joint structure was not disturbed. For the sham group, both right and left knees had sham surgeries. After surgery, 4-0 silk sutures were used to close the incision using an interrupted pattern. Mice were provided analgesia via intraperitoneal injection of buprenorphine (0.5 mg/kg) every 12 hours for 72 hours, and sutures were removed after 7 days. Mice were sacrificed, at the indicated time points, by anesthesia followed with whole animal perfusion using 10% NBF, knees were harvested and fixed for 7 days in 10% NBF, decalcified for 7 days in 10% w/v EDTA, embedded in paraffin, and 10-μm sections were cut and mounted for Safranin-O/Fast Green or IF staining.
Semi-quantitative histopathologic grading was performed using a derivative of the Chambers' scoring system that has been established by the OARSI histopathology initiative as the standard method for grading of mouse cartilage degeneration. Based on this system, cartilage grading was carried out using Safranin-O/Fast Green-stained midsagittal sections. Three sections from representative levels (50 μm apart) of the medial compartment of the joint were selected for each sample and, which were evaluated in a randomized, blinded manner by 3 laboratory members. The 3 scores were averaged to calculate the section score, and the sample score was then calculated by averaging the scores obtained from the three levels. Grading was performed using the following scale: 0=normal cartilage, 0.5=loss of proteoglycan stain without cartilage damage, 1=mild superficial fibrillation, 2=fibrillation and/or clefting extending below the superficial zone, 3=mild (<25%) loss of cartilage, 4=moderate (25-50%) loss of cartilage, 5=severe (50-75%) loss of uncalcified cartilage, and 6=eburnation with >75% loss of cartilage. Grading was performed by three blinded observers (F.K., M.J.Z., and E.R.S.). Observer agreement was evaluated in pairs via calculation of a weighted kappa coefficient, using Fleiss-Cohen weights, as we have described. The F.K. versus M.J.Z. coefficient was 0.92, the F.K. versus E.R.S. coefficient was 0.94, and the M.J.Z. versus E.R.S coefficient was 0.89, all indicative of strong agreement between the observers.
Using Safranin-O/Fast Green-stained sections, the OsteoMetrics system was used to quantify the above parameters on three sections from representative levels (50 μm apart) of the medial compartment of the joint for each sample. Live images of the center of the knee joint were collected through an Olympus microscope (10× objective) outfitted with a camera, a stylus was used to trace the regions of interest (ROIs). A blinded observer quantified uncalcified articular cartilage area, total chondrocyte number and matrix-producing chondrocyte number using the built-in area calculation algorithms and quantification functions of the OsteoMeasure® system. […]

[1] = test system: Gas activity (cAMP content in cartilage); test: cAMP assay in tibial articular cartilage of drug-treated DMM mice; type: in vivo, mouse
Method: Drug treatment studies: In twelve-week old male wild type C57BL/6 mice that received DMM surgeries, vehicle (PBS), paroxetine (5 mg/kg/day), fluoxetine (5 mg/kg/day), gallein (10 mg/kg/day) or indomethacin (2.5 mg/kg/day) were administered daily by ip injection. Drug treatment was initiated 8 weeks following DMM to determine the role of GRK2 signaling in the progression of OA. Short term drug treatment study: To evaluate the acute effect of drug treatments, GRK2^f/f mice received sham or DMM surgery followed by treatment with vehicle, paroxetine, gallein, fluoxetine, or indomethacin with the doses indicated above for 1 week beginning at 8 weeks post DMM. All mice were sacrificed 9 weeks post DMM, 21 weeks of age, for analysis of OA progression. Gas activity was measured by quantifying cAMP content in cartilage pooled from 3 mice. Tibial cartilage was dissected out and snap frozen in liquid Nitrogen. As positive control, tibial cartilage obtained from normal mice was treated with 0.5 mM 3-isobutyl-1-methylxanthine (IBMX) for 30 minutes, followed by 0.1 mM Forskolin for 15 minutes, then snap frozen in liquid Nitrogen. For human cartilage cAMP content, 70 mg frozen cartilage were used. Frozen cartilage was pulverized using 500 μL lysis buffer as we have previously described (H. K. Le Bleu, Anal Biochem, 518, 134-138 (2017)). cAMP content was quantified using the Cyclic AMP XP Assay kit (Cell Signaling, #4339) and following manufacturer's protocol, with 0.5 mM IBMX added to the lysis buffer to prevent phosphodiesterase mediated cAMP degradation during the extraction process. cAMP levels in different groups were normalized to that of sham mice or the vehicle treated human cartilage.

[2] = 7 days of drug treatment from 8 weeks post-DMM

SMILES	cartilage degeneration (Safranin-O and Fast Green histology) (DMM mice)	chondro-protective and matrix-regenerative effects (overall) (DMM mice)	total number of chondrocytes (DMM mice)	uncalcified cartilage area (DMM mice)	OARSI score (DMM mice)	number of matrix producing chondrocytes (DMM mice)	cAMP levels in the articular cartilage [1, 2]	cAMP levels in the articular cartilage ([1]; daily ip week 8 to 12)
O=C1OC2(c3ccccc31)c1ccc(O)c(O)c1Oc1c2ccc(O)c1O [gallein]	reduced	exert both a chondro-protective and a matrix-regenerative effects; also recorded: equivalent to that of paroxetine	preserved	preserved	lower	higher number	restored	restored
Fc1ccc([C@@H]2CCNC[C@H]2COc2ccc3c(c2)OCO3)cc1 [paroxetine]	reduced	exert both a chondro-protective and a matrix-regenerative effects	preserved	preserved	lower	higher number	restored	restored
